{"source": "patent US8822182B2", "about": "“Chimeric antigen-specific T cell-activating polypeptides” (Mayo Foundation for Medical Education and Research, priority 2001, dated 2014)", "key": {"[1]": {"test_system": "TAP-expressing 221.A2 target cells", "type": "cell-based, human"}, "[2]": {"test_system": "TAP-deficient T2 target cells", "type": "cell-based, human"}, "[3]": {"test_system": "TAP deficient RMA-S targets", "type": "cell-based, mouse", "conditions": "ConA-activated CTL, 10 μM overnight"}, "C57BL6 mice": {"test_system": "C57BL6 mice", "type": "in vivo, mouse", "conditions": "40 μg immunogen in IFA plus CpG adjuvant; spleen cells restimulated 7 days with peptide epitope; RMA-S targets, FIGS. 11A-11C"}, "[4]": {"test_system": "TAP-deficient cells (T2/K^b)", "test": "Immunofluorescence and confocal microscopy of H-2K^b/OVA257 complexes, T2/K^b cells", "type": "cell-based, human", "description": "(§1) T2/K^b or L-K^b cells were cultured overnight on poly-lysine treated glass coverslips. The culture medium was discarded, and the cells were gently washed with PBS. The cells were pre-incubated with serum-free AIM-V medium at 37° C. for 30 minutes and then incubated with peptide/TA solutions at the indicated concentrations for 12 hour at 37° C. After peptide loading, the cells were washed and fixed with 2% formaldehyde for 20 minutes at room temperature. For indirect immunofluorescence, fixed cell monolayers were permeabilized with 0.2% Triton X100 in PBS and incubated with PBS containing 5% goat serum to block non-specific protein binding sites. The cells were double-labeled with mouse monoclonal antibody 25D1.16 specific to OVA257/H-2K^b complex and rabbit polyclonal antibody TGN38 (TGN marker) or rabbit anti-calreticulin (ER marker), followed by 1 hour staining with FITC anti-mIgG and TR anti-rIgG as secondary antibodies. After washing, the coverslips were mounted for observation on glass slides using the Prolong Antifade Kit. The stained cells were examined and photographed with a Leica TCS-SL confocal laser-scanning microscope (Bensheim, Germany).\nAn antibody specific for trans-Golgi network (TGN38) was used to test whether H-2K^b/OVA257 complexes could also be detected in the trans-Golgi network of cells incubated with TA peptides. […] In these cells, antibody TGN38 stained brightly a structure corresponding to the trans-Golgi. […] These observations reinforce the findings that TA peptides need to penetrate cells in order to create MHC class I/peptide complexes. In addition, these complexes are observed in both the ER and trans-Golgi, even in TAP-deficient cells."}, "[5]": {"test_system": "TAP-competent cells expressing H-2K^b (L-K^b)", "test": "Immunofluorescence and confocal microscopy of H-2K^b/OVA257 complexes, TAP-competent cells", "type": "cell-based, mouse", "conditions": "25D1.16 staining", "description": "as §1\nUtilizing the monoclonal antibody 25D1.16 that specifically reacts with H-2K^b/OVA257 complexes and confocal microscopy, the formation and presence of this CTL epitope in permeabilized TAP-competent and TAP-deficient cells expressing H-2K^b was evaluated. […] These cells were also stained with an antibody specific for calreticulin which is localized within the ER."}, "[6]": {"test_system": "TAP-deficient T2/K^b cells", "test": "Flow cytometry of surface H-2K^b/OVA257 complexes (25D1.16) with protease inhibitors, T2/K^b cells", "type": "cell-based, human", "conditions": "decRVKR-CMK 60 μM, antigen 10 μM overnight, FIGS. 8D-8F", "description": "(§2) The effects of protease inhibitors on antigen processing and presentation were evaluated by analysis of 25D1.16 staining on different antigen-pulsed EL-4 or T2/K^b cells using flow cytometric analysis. In brief, EL-4 or T2/K^b cells were washed twice with serum-free AIM-V medium (Life Technologies, Rockville, Md.), pre-treated with protease inhibitors (10 μM lactacycstin, 100 μM pepstatin or 60 μM decRVKR-CMK) for 30 minutes and then pulsed with equimolar concentrations of different (as indicated) peptides at 37° C. overnight with the continuous presence of the corresponding protease inhibitors. The serum-free AIM-V medium was used in order to exclude the potential involvement of serum proteases during the peptide-pulsing process. After washing the cells twice with FACS buffer (PBS (phosphate buffered saline) supplemented with 2% FBS and 0.2% sodium azide), peptide-loaded APC were stained with 25D1.16 antibody followed by FITC anti-mIgG for flow analysis. Untreated EL-4 and T2/K^b cells were pulsed with peptides and stained as controls.\nThe data described above indicate that TA can be processed in various cellular compartments to produce small peptide epitopes that subsequently associate with MHC class I molecules and the resulting peptide-MHC class I complexes are then transported to the cell surface. Antigen processing could take place: (1) in the cytoplasm, via proteasomal degradation followed by TAP transport; (2) within the ER, where peptide trimming via an aminopeptidase could occur; (3) in the trans-Golgi, where processing of antigens through proteases such as furin can occur; and/or (4) in early endocytic compartments, where peptides that could either bind to recycling MHC class I molecules or leak into other compartments of the MHC class I pathway can be generated. Utilizing antibody 25D1.16, we studied the effects of various inhibitors of antigen processing in the formation of H-2K^b/OVA257 surface complexes by peptides OVA257-HIVtat and HIVtat-OVA257."}, "[7]": {"test_system": "Murine dendritic cells (DC)", "test": "Persistence in dendritic cells: IFN-γ ELISA of OT-1 CTL cultured with pulsed DC", "type": "cell-based, mouse", "conditions": "DC pulsed 10 μM 2 hours, washed, further 48 hours, CTL:DC 10:1 for 24 hours, FIG. 14", "description": "Murine dendritic cells (DC) were prepared by culturing C57BL6 mouse (H-2^b) bone marrow […] in the presence of granulocyte macrophage colony stimulating factor (GM-CSF) and interleukin-4 (IL-4) by a method essentially the same as that described by Son et al. [(2002) J. Immunol. Meth. 262:145-157] except that non-adherent cells are removed from the cultures and discarded on day 2 of culture and no density gradient centrifugation step was used. Cells not adhering to the plastic tissue culture vessel at day 6 of culture were harvested and used as DC.\nDC were pulsed with either the TA HIVtat-OVA257 (see Table 2) or the peptide epitope OVA257, each at a concentration of 10 μM, for 2 hours at 37° C. The cells were then washed free of the TA or peptide epitope and incubated for a further 48 hours. They were then cultured with cells of the OT-1 CTL clone (specific for H-2K^b/OVA257) at a CTL to DC ratio of 10:1 for 24 hours. Supernatants were then removed from the cultures and the relative amounts of IFN-γ in various dilutions of each supernatant were measured by ELISA (FIG. 14). […] These findings indicate that a peptide epitope persists in DC for a longer period of time when taken up by DC in the form of a TA than when taken up by DC in the form of the peptide epitope per se."}, "TAP-competent EL-4 cells": {"test_system": "TAP-competent EL-4 cells", "test": "Flow cytometry of surface H-2K^b/OVA257 complexes (25D1.16) with protease inhibitors, EL-4 cells", "type": "cell-based, mouse", "conditions": "decRVKR-CMK 60 μM, antigen 10 μM overnight, FIGS. 8A-8C", "description": "as §2"}, "RMA-S cells": {"test_system": "RMA-S cells", "test": "Flow cytometry of surface H-2K^b/OVA257 complexes on RMA-S cells with or without furin inhibitor", "type": "cell-based", "conditions": "18 hours, 25D1.16 antibody, FIG. 13", "description": "Aliquots of RMA-S cells were cultured without or with the furin inhibitor decRVKR-CMK (60 μM) at 37° C. After one hour of culture, 4 multiple epitope-containing TA (TA3-A, TA3-B, TA3-C, and TA3-D) or OVA257 were each added to separate cultures, which were then incubated for a further 18 hours. The cells were then harvested and the relative amounts of H-2K^b/OVA257 complexes expressed on the surfaces of the cells were assessed by fluorescence flow cytometry using the 25D1.16 antibody (FIG. 13). […] These findings underscore the importance of furin in processing of antigens to generate peptide epitopes that bind to MHC class I molecules and are then recognized by appropriate peptide epitope-specific CTL."}}}
{"sequence": "RQIKIWFPNRRMKWKKAEIDLIMDQVPFSVLRTED [AntpHD-gp100209]", "values": [{"measurement": "sensitization of targets for lysis by gp100209-specific CTL clone", "setting": "[1]", "value": "efficiently sensitized"}, {"measurement": "effect of brefeldin-A (BFA) on sensitization of T2 cells", "setting": "[2]", "value": "effective in blocking"}, {"measurement": "sensitization of targets for lysis by gp100209-specific CTL clone", "setting": "[2]", "value": "efficiently sensitized"}]}
{"sequence": "IKAVYNFATCGRVKRSIYRYYGLRVKRSIINFEKLAAARKKRRQRRR [TA3-A]", "values": [{"measurement": "sensitization of targets for killing by OVA257-specific CTL", "setting": "[3]; FIG. 9 left panel", "value": "could effectively kill targets sensitized"}, {"measurement": "sensitization of targets for killing by 2C-specific CTL", "setting": "[3]; FIG. 9 middle panel", "value": "could effectively kill targets sensitized"}, {"measurement": "induction of CTL responses by in vivo vaccination", "setting": "C57BL6 mice", "value": "at least as effective as the peptide mixture"}]}
{"sequence": "SIINFEKL [OVA257, reference compound]", "values": [{"measurement": "location of H-2K^b/OVA257 complexes on the cell-surface", "setting": "[4]; 25D1.16 staining", "value": "most of the H-2K^b/OVA257 complexes were on the cell-surface"}, {"measurement": "localization of H-2K^b/OVA257 complexes to the trans-Golgi", "setting": "[4]; 25D1.16 superimposed with TGN38 staining", "value": "no localization to the trans-Golgi"}, {"measurement": "presence of H-2K^b/OVA257 complexes in permeabilized cells", "setting": "[5]", "value": "abundant"}, {"measurement": "effect of furin inhibitor decRVKR-CMK on expression of surface H-2K^b/OVA257 complexes (decrease)", "setting": "[6]", "value": "no effect was observed"}, {"measurement": "IFN-γ produced by OT-1 CTL cultured with pulsed DC", "setting": "[7]", "value": "insignificant levels of IFN-γ"}, {"measurement": "effect of furin inhibitor decRVKR-CMK on expression of surface H-2K^b/OVA257 complexes (decrease)", "setting": "TAP-competent EL-4 cells", "value": "no effect was observed"}, {"measurement": "cell-surface H-2K^b/OVA257 complexes after exposure of cells", "setting": "RMA-S cells", "value": "detectable levels"}]}
